The test system of the assay is HBV viral production from HepAD38 cells. As to the kind of experiment: Activity of test compounds on viral production from HepAD38 cells (viral load by qPCR of HBV core sequence in supernatant). It is filed as cell-based. Conditions: Hepatitis B virus, 120 h, 5 days incubation, HBV DNA in supernatant by qPCR, top concentration 10 μM, read-out: Viral Load EC50 Activity range. The procedure, abridged: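 EC50 and CC50 come from four-parameter fits of supernatant viral load and CellTiter-Glo viability, respectively. Viral load was measured by core-region TaqMan qPCR against HBV DNA standards and compared with DMSO controls. Tet-free HepAD38 cells (50,000/well, 2% FBS) were exposed to compound, highest 10 μM, for 5 days at 37° C.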
A word on the EC50: it is the concentration at which the effect is half-maximal. As to `Cc1cc([C@@H]2C[C@H](C(=O)Nc3ccc(F)c(Cl)c3)N(C)S(=O)(=O)N2)sc1-c1cnn(C)c1` [HBV-CSU-300-ISO-II, Cis-N-(3-Chloro-4-fluorophenyl)-5-(4-methyl-5-(1-methyl-1H-pyrazol-4-yl)thiophen-2-yl)-2-methyl-1,2,6-thiadiazinane-3-carboxamide 1,1-dioxide], the EC50 is over 5000 nM. The result for `CN1[C@H](C(=O)Nc2ccc(F)c(Cl)c2)C[C@H](c2cc(Cl)c(-c3cnn(C)c3)s2)NS1(=O)=O` [HBV-CSU-302-ISO-I, Cis-N-(3-Chloro-4-fluorophenyl)-5-(4-chloro-5-(1-methyl-1H-pyrazol-4-yl)thiophen-2-yl)-2-methyl-1,2,6-thiadiazinane-3-carboxamide 1,1-dioxide] reads under 1000 nM; that for `CN1[C@@H](C(=O)Nc2ccc(F)c(Cl)c2)C[C@@H](c2cc(Cl)c(-c3cnn(C)c3)s2)NS1(=O)=O` [HBV-CSU-302-ISO-II, Cis-N-(3-Chloro-4-fluorophenyl)-5-(4-chloro-5-(1-methyl-1H-pyrazol-4-yl)thiophen-2-yl)-2-methyl-1,2,6-thiadiazinane-3-carboxamide 1,1-dioxide], over 5000 nM; that for `Cc1sc([C@H]2C[C@@H](C(=O)Nc3ccc(F)c(Cl)c3)N(C)S(=O)(=O)N2)cc1-c1cnn(C)c1` [HBV-CSU-304-ISO-I, Cis-N-(3-Chloro-4-fluorophenyl)-2-methyl-5-(5-methyl-4-(1-methyl-1H-pyrazol-4-yl)thiophen-2-yl)-1,2,6-thiadiazinane-3-carboxamide 1,1-dioxide], under 1000 nM. Under `Cc1sc([C@@H]2C[C@H](C(=O)Nc3ccc(F)c(Cl)c3)N(C)S(=O)(=O)N2)cc1-c1cnn(C)c1` [HBV-CSU-304-ISO-II, Cis-N-(3-Chloro-4-fluorophenyl)-2-methyl-5-(5-methyl-4-(1-methyl-1H-pyrazol-4-yl)thiophen-2-yl)-1,2,6-thiadiazinane-3-carboxamide 1,1-dioxide] stands over 5000 nM; under `CCc1sc([C@H]2C[C@@H](C(=O)Nc3ccc(F)c(Cl)c3)N(C)S(=O)(=O)N2)cc1-c1cnn(C)c1` [HBV-CSU-305-ISO-I, Cis-N-(3-Chloro-4-fluorophenyl)-5-(5-ethyl-4-(1-methyl-1H-pyrazol-4-yl)thiophen-2-yl)-2-methyl-1,2,6-thiadiazinane-3-carboxamide 1,1-dioxide], under 1000 nM; under `CCc1sc([C@@H]2C[C@H](C(=O)Nc3ccc(F)c(Cl)c3)N(C)S(=O)(=O)N2)cc1-c1cnn(C)c1` [HBV-CSU-305-ISO-II, Cis-N-(3-Chloro-4-fluorophenyl)-5-(5-ethyl-4-(1-methyl-1H-pyrazol-4-yl)thiophen-2-yl)-2-methyl-1,2,6-thiadiazinane-3-carboxamide 1,1-dioxide], 1000 to 5000 nM. As to `CN1[C@H](C(=O)Nc2ccc(F)c(Cl)c2)C[C@H](c2cc(-c3cnn(C)c3)c(Cl)s2)NS1(=O)=O` [HBV-CSU-306-ISO-I, Cis-5-(5-chloro-4-(1-methyl-1-pyrazol-4-yl)thiophen-2-yl)-N-(3-chloro-4-fluorophenyl)-2-methyl-1,2,6-thiadiazinane-3-carboxamide 1,1-dioxide], the EC50 was under 1000 nM. The result for `CN1[C@@H](C(=O)Nc2ccc(F)c(Cl)c2)C[C@@H](c2cc(-c3cnn(C)c3)c(Cl)s2)NS1(=O)=O` [HBV-CSU-306-ISO-II, Cis-5-(5-chloro-4-(1-methyl-1-pyrazol-4-yl)thiophen-2-yl)-N-(3-chloro-4-fluorophenyl)-2-methyl-1,2,6-thiadiazinane-3-carboxamide 1,1-dioxide] reads over 5000 nM.

Take `Cc1c(-c2ccc([C@H]3C[C@@H](C(=O)Nc4ccc(F)c(Cl)c4)N(C)S(=O)(=O)N3)s2)cnn1C` [HBV-CSU-312-ISO-I, Cis-N-(3-chloro-4-fluorophenyl)-5-(5-(1,5-dimethyl-1H-pyrazol-4-yl)thiophen-2-yl)-2-methyl-1,2,6-thiadiazinane-3-carboxamide 1,1-dioxide]: the EC50 is under 1000 nM. With `Cc1c(-c2ccc([C@@H]3C[C@H](C(=O)Nc4ccc(F)c(Cl)c4)N(C)S(=O)(=O)N3)s2)cnn1C` [HBV-CSU-312-ISO-II, Cis-N-(3-chloro-4-fluorophenyl)-5-(5-(1,5-dimethyl-1H-pyrazol-4-yl)thiophen-2-yl)-2-methyl-1,2,6-thiadiazinane-3-carboxamide 1,1-dioxide], the EC50 was in the range of 1000 to 5000 nM. Regarding `Cc1nn(C)cc1-c1ccc([C@H]2C[C@@H](C(=O)Nc3ccc(F)c(Cl)c3)N(C)S(=O)(=O)N2)s1` [HBV-CSU-313-ISO-I, Cis-N-(3-chloro-4-fluorophenyl)-5-(5-(1,3-dimethyl-1H-pyrazol-4-yl)thiophen-2-yl)-2-methyl-1,2,6-thiadiazinane-3-carboxamide 1,1-dioxide], the EC50 was under 1000 nM. Under `Cc1nn(C)cc1-c1ccc([C@@H]2C[C@H](C(=O)Nc3ccc(F)c(Cl)c3)N(C)S(=O)(=O)N2)s1` [HBV-CSU-313-ISO-II, Cis-N-(3-chloro-4-fluorophenyl)-5-(5-(1,3-dimethyl-1H-pyrazol-4-yl)thiophen-2-yl)-2-methyl-1,2,6-thiadiazinane-3-carboxamide 1,1-dioxide] stands 1000 to 5000 nM.

With `Cc1nn(C)c(C)c1-c1ccc([C@H]2C[C@@H](C(=O)Nc3ccc(F)c(Cl)c3)N(C)S(=O)(=O)N2)s1` [HBV-CSU-314-ISO-I, Cis-N-(3-chloro-4-fluorophenyl)-2-methyl-5-(5-(1,3,5-trimethyl-1H-pyrazol-4-yl)thiophen-2-yl)-1,2,6-thiadiazinane-3-carboxamide 1,1-dioxide], the EC50 is under 1000 nM. In the case of `Cc1nn(C)c(C)c1-c1ccc([C@@H]2C[C@H](C(=O)Nc3ccc(F)c(Cl)c3)N(C)S(=O)(=O)N2)s1` [HBV-CSU-314-ISO-II, Cis-N-(3-chloro-4-fluorophenyl)-2-methyl-5-(5-(1,3,5-trimethyl-1H-pyrazol-4-yl)thiophen-2-yl)-1,2,6-thiadiazinane-3-carboxamide 1,1-dioxide], the EC50 was in the range of 1000 to 5000 nM. Turning to `Cc1c(-c2csc(C3CC(C(=O)Nc4ccc(F)c(Cl)c4)N(C)S(=O)(=O)N3)c2)cnn1C` (stereo not drawn) [HBV-CSU-315, Cis-N-(3-chloro-4-fluorophenyl)-5-(4-(1,5-dimethyl-1H-pyrazol-4-yl)thiophen-2-yl)-2-methyl-1,2,6-thiadiazinane-3-carboxamide 1,1-dioxide], the EC50 is under 1000 nM. The result for `Cc1c(-c2csc([C@H]3C[C@@H](C(=O)Nc4ccc(F)c(Cl)c4)N(C)S(=O)(=O)N3)c2)cnn1C` [HBV-CSU-315-ISO-I, Cis-N-(3-chloro-4-fluorophenyl)-5-(4-(1,5-dimethyl-1H-pyrazol-4-yl)thiophen-2-yl)-2-methyl-1,2,6-thiadiazinane-3-carboxamide 1,1-dioxide] reads under 1000 nM.

For the compound `Cc1nn(C)cc1-c1csc([C@H]2C[C@@H](C(=O)Nc3ccc(F)c(Cl)c3)N(C)S(=O)(=O)N2)c1` [HBV-CSU-316-ISO-I, Cis-N-(3-chloro-4-fluorophenyl)-5-(4-(1,3-dimethyl-1H-pyrazol-4-yl)thiophen-2-yl)-2-methyl-1,2,6-thiadiazinane-3-carboxamide 1,1-dioxide], the EC50 is under 1000 nM. The result for `Cc1nn(C)c(C)c1-c1csc([C@H]2C[C@@H](C(=O)Nc3ccc(F)c(Cl)c3)N(C)S(=O)(=O)N2)c1` [HBV-CSU-317-ISO-I, Cis-N-(3-chloro-4-fluorophenyl)-2-methyl-5-(4-(1,3,5-trimethyl-1H-pyrazol-4-yl)thiophen-2-yl)-1,2,6-thiadiazinane-3-carboxamide 1,1-dioxide] reads under 1000 nM; that for `CN1[C@H](C(=O)Nc2ccc(F)c(Cl)c2)C[C@H](c2ccc(-c3cnn(C(F)(F)F)c3)s2)NS1(=O)=O` [HBV-CSU-321-ISO-I, Cis-N-(3-Chloro-4-fluorophenyl)-2-methyl-5-(5-(1-(trifluoromethyl)-1H-pyrazol-4-yl)thiophen-2-yl)-1,2,6-thiadiazinane-3-carboxamide 1,1-dioxide], under 1000 nM. The result for `CN1[C@@H](C(=O)Nc2ccc(F)c(Cl)c2)C[C@@H](c2ccc(-c3cnn(C(F)(F)F)c3)s2)NS1(=O)=O` [HBV-CSU-321-ISO-II, Cis-N-(3-Chloro-4-fluorophenyl)-2-methyl-5-(5-(1-(trifluoromethyl)-1H-pyrazol-4-yl)thiophen-2-yl)-1,2,6-thiadiazinane-3-carboxamide 1,1-dioxide] reads over 5000 nM. The result for `CN1C(C(=O)Nc2ccc(F)c(Cl)c2)CC(c2ccc(-c3cnn(C(F)(F)F)c3)s2)NS1(=O)=O` (centres unmarked) [HBV-CSU-321] reads under 1000 nM.

For `CN1[C@H](C(=O)Nc2ccc(F)c(Cl)c2)C[C@H](c2ccc(-c3ncn(C)n3)s2)NS1(=O)=O` [HBV-CSU-322-ISO-I, Cis-N-(3-Chloro-4-fluorophenyl)-2-methyl-5-(5-(1-methyl-1H-1,2,4-triazol-3-yl)thiophen-2-yl)-1,2,6-thiadiazinane-3-carboxamide 1,1-dioxide], the EC50 was under 1000 nM.

In the case of `CN1[C@@H](C(=O)Nc2ccc(F)c(Cl)c2)C[C@@H](c2ccc(-c3ncn(C)n3)s2)NS1(=O)=O` [HBV-CSU-322-ISO-II, Cis-N-(3-Chloro-4-fluorophenyl)-2-methyl-5-(5-(1-methyl-1H-1,2,4-triazol-3-yl)thiophen-2-yl)-1,2,6-thiadiazinane-3-carboxamide 1,1-dioxide], the EC50 was over 5000 nM.

Turning to `CN1[C@H](C(=O)Nc2ccc(F)c(Cl)c2)C[C@H](c2ccc(-c3ncnn3C)s2)NS1(=O)=O` [HBV-CSU-323-ISO-I, Cis-N-(3-Chloro-4-fluorophenyl)-2-methyl-5-(5-(1-methyl-1H-1,2,4-triazol-5-yl)thiophen-2-yl)-1,2,6-thiadiazinane-3-carboxamide 1,1-dioxide], the EC50 was under 1000 nM.

As for `CN1[C@@H](C(=O)Nc2ccc(F)c(Cl)c2)C[C@@H](c2ccc(-c3ncnn3C)s2)NS1(=O)=O` [HBV-CSU-323-ISO-II, Cis-N-(3-Chloro-4-fluorophenyl)-2-methyl-5-(5-(1-methyl-1H-1,2,4-triazol-5-yl)thiophen-2-yl)-1,2,6-thiadiazinane-3-carboxamide 1,1-dioxide], the EC50 is 1000 to 5000 nM.

These data come from US11078170B2 (Assembly Biosciences, Inc., priority 2017, dated 2021).
